Results on 4 molecules are retold here after patent US11382956B2, “Amylin analogues” (Zealand Pharma A/S, priority 2016, dated 2022).

Data set [1] concerns the target T1, recombinant human amylin 3 receptor (hAMYR3) (Homo sapiens, UniProt O60896+P30988).
T1 construct: host or cells: human astrocytoma cell line 1321N1
T1 sequence (P30988 25-474): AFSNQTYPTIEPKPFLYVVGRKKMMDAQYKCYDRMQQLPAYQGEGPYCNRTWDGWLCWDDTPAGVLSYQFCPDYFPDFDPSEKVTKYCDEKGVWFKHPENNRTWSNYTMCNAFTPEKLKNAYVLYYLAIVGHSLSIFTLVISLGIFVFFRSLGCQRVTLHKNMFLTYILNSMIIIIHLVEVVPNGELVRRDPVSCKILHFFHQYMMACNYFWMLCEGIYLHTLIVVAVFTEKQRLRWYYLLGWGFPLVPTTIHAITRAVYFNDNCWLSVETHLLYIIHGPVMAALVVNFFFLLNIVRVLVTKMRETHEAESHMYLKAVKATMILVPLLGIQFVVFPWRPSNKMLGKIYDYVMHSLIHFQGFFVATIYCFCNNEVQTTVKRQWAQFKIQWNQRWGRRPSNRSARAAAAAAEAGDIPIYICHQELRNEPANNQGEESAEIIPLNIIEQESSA
T1 sequence (O60896 24-148 partner): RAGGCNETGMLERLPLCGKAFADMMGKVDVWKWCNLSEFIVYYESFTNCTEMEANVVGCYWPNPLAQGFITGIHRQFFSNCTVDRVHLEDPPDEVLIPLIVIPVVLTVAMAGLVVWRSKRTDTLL
As to the kind of experiment: hAMYR3 cAMP assay (AlphaScreen) in 1321N1 cells. The data set is classed as cell-based. The following applies: cAMP formation, 45 min stimulation. The procedure, abridged: (§1)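 1321N1 astrocytoma cells expressing recombinant human calcitonin receptor alone or with RAMP3 (AMY3) stimulated 45 min at room temperature with peptide in IBMX-containing buffer. cAMP quantified by AlphaScreen after 1 h bead incubation; EC50 fitted from at least 7 concentrations.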
On the technique in general: Cyclic AMP is a second messenger, typically raised through Gs and lowered through Gi signalling.

Data set [2] has as its target T2, recombinant human calcitonin receptor (hCT-R) (Homo sapiens, UniProt P30988).
T2 construct: host or cells: human astrocytoma cell line 1321N1
T2 sequence (P30988 25-474): T1 sequence (P30988 25-474)
In words: hCT-R cAMP assay (AlphaScreen) in 1321N1 cells. The data set is classed as cell-based. The following applies: cAMP formation, 45 min stimulation. The procedure, abridged: as §1

Data set [3] in a line: Assessment of physical stability: fibril formation by Thioflavin T fluorescence. Conditions: 1 mg/mL peptide; for Fibrillation (in buffer) pH4 acetate: 50 mM acetate buffer pH 4.0, 96 hours at 40° C.; for Fibrillation (in buffer) pH7 histidine: 50 mM histidine buffer pH 7.0, 96 hours at 40° C.; for Fibrillation (in buffer) pH7 phosphate: 50 mM phosphate buffer pH 7.0, 96 hours at 40° C. The data set is classed as physicochemical. The arrangement: key: FND = fibrillation not detected; FD = fibrillation detected. As to the method:
Solutions containing (i) 1 mg/mL of test peptide, 40 μM ThT and 50 mM phosphate (Ph) buffer (pH 7.0), (ii) 1 mg/mL of test peptide, 40 μM ThT and 50 mM histidine (His) buffer (pH 7.0), and (iii) 1 mg/mL of test peptide, 40 μM ThT and 50 mM acetate (Ac) buffer (pH 4.0), were loaded in a 96-well black fluorescence plate (clear bottom) in triplicate. Data were collected at fixed intervals of 10 min, each preceded by 300 s of automixing (agitation), over a period of 96 hours at 40° C. Physical stability is determined by measuring the fluorescence intensity over time. A significant increase in intensity is rated as fibrillation detected (FD).

Data set [4] can be described thus: Assessment of chemical stability in 40 mM buffers at 40° C. (RP-HPLC). The format is physicochemical. Conditions: 1 mg/mL; for % degradation after 72 h at 40° C. pH4 acetate: acetate buffer pH 4, 72 h; for % degradation after 72 h at 40° C. pH6 phosphate: phosphate buffer pH 6, 72 h; for % degradation after 72 h at 40° C. pH7 phosphate: phosphate buffer pH 7, 72 h. The procedure, abridged: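 Peptides at 1 mg/mL in 40 mM acetate pH 4 or phosphate pH 6 and 7 were held at 40° C for 3 and 14 days. Main-peak area-% by C8 RP-HPLC, UV 220 nm; % degradation = change in main-peak area-% versus t=0.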

pEC50: −log10 of the molar value. Numbered stars: 1 amine (or outer) side, 2 acyl side, 3 side chain; on linkers, the order of the positions; unused ones are H or OH. Bridge positions count the residues as written; N and C are the ends. Square brackets hold non-standard residues; d marks the D form. Peptide text beside a SMILES is read from it. * marks the point of attachment. C20 diacid = O=C(O)CCCCCCCCCCCCCCCCCCC(=O)*; γGlu = O=C(O)[C@H](CCC(=O)[*:2])N[*:1]; Hyp = O=C(O)[C@@H]1C[C@@H](O)CN1; NMeI = CC[C@H](C)[C@H](NC)C(=O)O; Aad = N[C@@H](CCCC(=O)O)C(=O)O; Orn = NCCC[C@H](N)C(=O)O; Sar = CNCC(=O)O

On to `CC[C@H](C)[C@@H](C(=O)N1CCC[C@H]1C(=O)N[C@@H](CO)C(=O)N[C@@H](CO)C(=O)N[C@H](C(=O)N[C@@H](CCC(=O)O)C(=O)N[C@H](C(=O)NCC(=O)N[C@@H](CO)C(=O)N[C@@H](CC(N)=O)C(=O)N[C@H](C(=O)N1C[C@H](O)C[C@H]1C(N)=O)[C@@H](C)O)C(C)C)[C@@H](C)O)N(C)C(=O)[C@H](C)NC(=O)CN(C)C(=O)[C@H](Cc1ccccc1)NC(=O)[C@H](CO)NC(=O)[C@H](CO)NC(=O)[C@H](CCCNC(=N)N)NC(=O)[C@H](CCC(N)=O)NC(=O)[C@H](CC(C)C)NC(=O)[C@H](Cc1ccccc1)NC(=O)[C@H](Cc1c[nH]cn1)NC(=O)[C@H](C)NC(=O)[C@H](CC(C)C)NC(=O)[C@H](CCCNC(=N)N)NC(=O)[C@H](CCC(=O)O)NC(=O)[C@@H](NC(=O)[C@H](C)NC(=O)[C@@H]1CCCCNC(=O)C[C@H](NC(=O)[C@H](CCCNC(=N)N)NC(=O)CC[C@H](NC(=O)CCCCCCCCCCCCCCCCCCC(=O)O)C(=O)O)C(=O)NCC(=O)N[C@@H]([C@@H](C)O)C(=O)N[C@@H](C)C(=O)N[C@@H]([C@@H](C)O)C(=O)N1)[C@@H](C)O` [Compound 17, [19CD]-isoGlu-RD()GTATK()ATERLAHFLQRSSF-Gly(Me)-A-Ile(Me)-PSSTEVGSNT-Hyp-NH2] ({C20 diacid-γGlu}-RDGTATKATERLAHFLQRSSF[Sar]A[NMeI]PSSTEVGSNT[Hyp]-NH2; lactam 2-7), for which the pEC50 in data set [1] is 10.60. The pEC50 in data set [2] was 10.24. In data set [3], the “Fibrillation (in buffer) pH4 acetate” value is listed as “FND”, the “Fibrillation (in buffer) pH7 histidine” value is listed as “FND” and the “Fibrillation (in buffer) pH7 phosphate” value is given as “FND”. For the same molecule, in data set [4], the “% degradation after 72 h at 40° C. pH4 acetate” value is 1.2%, the “% degradation after 72 h at 40° C. pH6 phosphate” value is below 1% and the “% degradation after 72 h at 40° C. pH7 phosphate” value was below 1%.
Consider `CC[C@H](C)[C@@H](C(=O)N1CCC[C@H]1C(=O)N[C@@H](CO)C(=O)N[C@@H](CO)C(=O)N[C@H](C(=O)N[C@@H](CCC(=O)O)C(=O)N[C@H](C(=O)NCC(=O)N[C@@H](CO)C(=O)N[C@@H](CC(N)=O)C(=O)N[C@H](C(=O)N1C[C@H](O)C[C@H]1C(N)=O)[C@@H](C)O)C(C)C)[C@@H](C)O)N(C)C(=O)[C@H](C)NC(=O)CN(C)C(=O)[C@H](Cc1ccccc1)NC(=O)[C@H](CO)NC(=O)[C@H](CO)NC(=O)[C@H](CCCNC(=N)N)NC(=O)[C@H](CCC(N)=O)NC(=O)[C@H](CC(C)C)NC(=O)[C@H](Cc1ccccc1)NC(=O)[C@H](CCCC(=O)O)NC(=O)[C@H](C)NC(=O)[C@H](CC(C)C)NC(=O)[C@H](CCCNC(=N)N)NC(=O)[C@H](CCC(=O)O)NC(=O)[C@@H](NC(=O)[C@H](C)NC(=O)[C@@H]1CCCNC(=O)C[C@H](NC(=O)[C@H](CCCNC(=N)N)NC(=O)CC[C@H](NC(=O)CCCCCCCCCCCCCCCCCCC(=O)O)C(=O)O)C(=O)NCC(=O)N[C@@H]([C@@H](C)O)C(=O)N[C@@H](C)C(=O)N[C@@H]([C@@H](C)O)C(=O)N1)[C@@H](C)O` [Compound 21, [19CD]-isoGlu-RD()GTAT-Orn()-ATERLA-Aad-FLQRSSF-Gly(Me)-A-Ile(Me)-PSSTEVGSNT-Hyp-NH2] ({C20 diacid-γGlu}-RDGTAT[Orn]ATERLA[Aad]FLQRSSF[Sar]A[NMeI]PSSTEVGSNT[Hyp]-NH2; lactam 2-7), for which, in data set [1], the pEC50 is 11.00. The pEC50 in data set [2] was 10.43. Further, in data set [3], the “Fibrillation (in buffer) pH4 acetate” value was “FND”, the “Fibrillation (in buffer) pH7 histidine” value is given as “FND” and the “Fibrillation (in buffer) pH7 phosphate” value is reported as “FND”. In data set [4], the “% degradation after 72 h at 40° C. pH4 acetate” value was below 1%, the “% degradation after 72 h at 40° C. pH6 phosphate” value was below 1% and the “% degradation after 72 h at 40° C. pH7 phosphate” value is given as below 1%.
With `CC[C@H](C)[C@@H](C(=O)N[C@@H](CC(C)C)C(=O)N[C@@H](CO)C(=O)N[C@@H](CO)C(=O)N[C@H](C(=O)N[C@@H](CCC(=O)O)C(=O)N[C@H](C(=O)NCC(=O)N[C@@H](CO)C(=O)N[C@@H](CC(N)=O)C(=O)N[C@H](C(=O)N1C[C@H](O)C[C@H]1C(N)=O)[C@@H](C)O)C(C)C)[C@@H](C)O)N(C)C(=O)[C@H](C)NC(=O)CN(C)C(=O)[C@H](Cc1ccccc1)NC(=O)[C@@H](NC(=O)[C@H](C)NC(=O)[C@H](CCCNC(=N)N)NC(=O)[C@H](CCC(N)=O)NC(=O)[C@H](CC(C)C)NC(=O)[C@H](Cc1ccccc1)NC(=O)[C@H](CCCC(=O)O)NC(=O)[C@H](C)NC(=O)[C@H](CC(C)C)NC(=O)[C@H](CCCNC(=N)N)NC(=O)[C@H](CCC(=O)O)NC(=O)[C@@H](NC(=O)[C@H](C)NC(=O)[C@@H]1CCCNC(=O)C[C@H](NC(=O)[C@H](CCCNC(=N)N)NC(=O)CC[C@H](NC(=O)CCCCCCCCCCCCCCCCCCC(=O)O)C(=O)O)C(=O)NCC(=O)N[C@@H]([C@@H](C)O)C(=O)N[C@@H](C)C(=O)N[C@@H]([C@@H](C)O)C(=O)N1)[C@@H](C)O)[C@@H](C)O` [Compound 25, [19CD]-isoGlu-RD()GTAT-Orn()-ATERLA-Aad-FLQRATF-Gly(Me)-A-Ile(Me)-LSSTEVGSNT-Hyp-NH2] ({C20 diacid-γGlu}-RDGTAT[Orn]ATERLA[Aad]FLQRATF[Sar]A[NMeI]LSSTEVGSNT[Hyp]-NH2; lactam 2-7), the pEC50 in data set [1] is 9.47. Also, the pEC50 in data set [2] is 9.07. In data set [3], the “Fibrillation (in buffer) pH4 acetate” value was “FND”, the “Fibrillation (in buffer) pH7 histidine” value is given as “FND” and the “Fibrillation (in buffer) pH7 phosphate” value is reported as “FND”. In data set [4], the “% degradation after 72 h at 40° C. pH7 phosphate” value was below 1%.
For the molecule `CC[C@H](C)[C@@H](C(=O)N[C@@H](CC(C)C)C(=O)N[C@@H](CO)C(=O)N[C@@H](CO)C(=O)N[C@H](C(=O)N[C@@H](CCC(=O)O)C(=O)N[C@H](C(=O)NCC(=O)N[C@@H](CO)C(=O)N[C@@H](CC(N)=O)C(=O)N[C@H](C(=O)N1C[C@H](O)C[C@H]1C(N)=O)[C@@H](C)O)C(C)C)[C@@H](C)O)N(C)C(=O)[C@H](C)NC(=O)CN(C)C(=O)[C@H](Cc1ccccc1)NC(=O)[C@@H](NC(=O)CNC(=O)[C@H](CCCNC(=N)N)NC(=O)[C@H](CCC(N)=O)NC(=O)[C@H](CC(C)C)NC(=O)[C@H](Cc1ccccc1)NC(=O)[C@H](CCCC(=O)O)NC(=O)[C@H](C)NC(=O)[C@H](CC(C)C)NC(=O)[C@H](CCCNC(=N)N)NC(=O)[C@H](CCC(=O)O)NC(=O)[C@@H](NC(=O)[C@H](C)NC(=O)[C@@H]1CCCNC(=O)C[C@H](NC(=O)[C@H](CCCNC(=N)N)NC(=O)CC[C@H](NC(=O)CCCCCCCCCCCCCCCCCCC(=O)O)C(=O)O)C(=O)NCC(=O)N[C@@H]([C@@H](C)O)C(=O)N[C@@H](C)C(=O)N[C@@H]([C@@H](C)O)C(=O)N1)[C@@H](C)O)[C@@H](C)O` [Compound 27, [19CD]-isoGlu-RD()GTAT-Orn()-ATERLA-Aad-FLQRGTF-Gly(Me)-A-Ile(Me)-LSSTEVGSNT-Hyp-NH2] ({C20 diacid-γGlu}-RDGTAT[Orn]ATERLA[Aad]FLQRGTF[Sar]A[NMeI]LSSTEVGSNT[Hyp]-NH2; lactam 2-7), the pEC50 in data set [1] was 9.49. The negative logarithm of the EC50 (pEC50) in data set [2] was 9.28. Moreover, in data set [3], the “Fibrillation (in buffer) pH4 acetate” value is on record as “FND”, the “Fibrillation (in buffer) pH7 histidine” value was “FND” and the “Fibrillation (in buffer) pH7 phosphate” value is reported as “FND”. In data set [4], the “% degradation after 72 h at 40° C. pH4 acetate” value is given as below 1%, the “% degradation after 72 h at 40° C. pH6 phosphate” value is on record as below 1% and the “% degradation after 72 h at 40° C. pH7 phosphate” value came to 1.7%.

As usually defined, the pEC50 is −log10 of the EC50, conventionally taken in molar units.
